ChEMBL document CHEMBL5715954, “Silencing c-Myc translation as a therapeutic strategy through targeting PI3Kδ and CK1ε in hematological malignancies” (Blood, 2017)

What was measured:
Set-up in all cases: scale not given: the % may be the effect or the level left
[1] = target: Proto-oncogene tyrosine-protein kinase receptor Ret (Homo sapiens) (UniProt P07949); assay: Inhibition of human RET assessed as enzyme activity at 1 uM using RRRRRRRRRRRVYSTDYYRLFNPS as substrate preincubated for 20 mins followed by [gamma-33P]-ATP addition and measured after 120 mins by radiometric Hot-SpotSM Kinase assay relative to control
[2] = target: Tyrosine-protein kinase Srms (Homo sapiens) (UniProt Q9H3Y6); assay: Inhibition of human SRMS assessed as enzyme activity at 1 uM using poly[Glu:Tyr] (4:1) as substrate preincubated for 20 mins followed by [gamma-33P]-ATP addition and measured after 120 mins by radiometric Hot-SpotSM Kinase assay relative to control
Tyrosine-protein kinase Srms (Homo sapiens), sequence (Q9H3Y6 whole entry): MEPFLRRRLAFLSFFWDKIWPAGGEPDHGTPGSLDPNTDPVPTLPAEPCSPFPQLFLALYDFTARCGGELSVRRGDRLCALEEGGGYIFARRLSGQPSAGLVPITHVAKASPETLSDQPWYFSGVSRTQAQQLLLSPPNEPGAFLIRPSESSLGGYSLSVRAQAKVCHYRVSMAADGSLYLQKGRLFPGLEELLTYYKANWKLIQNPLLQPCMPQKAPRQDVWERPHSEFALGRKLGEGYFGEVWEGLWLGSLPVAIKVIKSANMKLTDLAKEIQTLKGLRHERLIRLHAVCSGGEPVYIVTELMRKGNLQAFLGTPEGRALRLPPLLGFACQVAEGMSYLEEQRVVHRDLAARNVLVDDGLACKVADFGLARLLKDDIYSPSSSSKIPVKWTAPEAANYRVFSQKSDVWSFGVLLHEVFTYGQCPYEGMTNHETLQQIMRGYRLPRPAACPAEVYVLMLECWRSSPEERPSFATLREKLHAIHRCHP

[3] = target: Dual specificity tyrosine-phosphorylation-regulated kinase 1A (Homo sapiens) (UniProt Q13627); assay: Inhibition of human DYRK1/DYRK1A assessed as enzyme activity at 1 uM using RRRFRPASPLRGPPK as substrate preincubated for 20 mins followed by [gamma-33P]-ATP addition and measured after 120 mins by radiometric Hot-SpotSM Kinase assay relative to control
[4] = target: RAC-alpha serine/threonine-protein kinase (Homo sapiens) (UniProt P31749); assay: Inhibition of human AKT1 assessed as enzyme activity at 1 uM using KGSGSGRPRTSSFAEG as substrate preincubated for 20 mins followed by [gamma-33P]-ATP addition and measured after 120 mins by radiometric Hot-SpotSM Kinase assay relative to control
[5] = target: T1, Aurora kinase C (Homo sapiens) (UniProt Q9UQB9); assay: Inhibition of human Aurora C assessed as enzyme activity at 1 uM using H-LRRASLG as substrate preincubated for 20 mins followed by [gamma-33P]-ATP addition and measured after 120 mins by radiometric Hot-SpotSM Kinase assay relative to control
T1 sequence (whole entry): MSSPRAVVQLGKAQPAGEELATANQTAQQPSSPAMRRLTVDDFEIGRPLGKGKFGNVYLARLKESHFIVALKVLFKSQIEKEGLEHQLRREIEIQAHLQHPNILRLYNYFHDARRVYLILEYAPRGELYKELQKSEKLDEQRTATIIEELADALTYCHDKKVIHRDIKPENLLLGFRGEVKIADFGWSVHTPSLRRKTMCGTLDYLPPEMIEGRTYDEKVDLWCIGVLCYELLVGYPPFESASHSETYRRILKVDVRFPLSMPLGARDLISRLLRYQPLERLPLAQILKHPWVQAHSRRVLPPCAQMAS

[6] = target: Serine/threonine-protein kinase NIM1 (Homo sapiens) (UniProt Q8IY84); assay: Inhibition of human NIM1 assessed as enzyme activity at 1 uM using KKKVSRSGLYRSPSMPENLNRPR as substrate preincubated for 20 mins followed by [gamma-33P]-ATP addition and measured after 120 mins by radiometric Hot-SpotSM Kinase assay relative to control
Serine/threonine-protein kinase NIM1 (Homo sapiens), sequence (Q8IY84 whole entry): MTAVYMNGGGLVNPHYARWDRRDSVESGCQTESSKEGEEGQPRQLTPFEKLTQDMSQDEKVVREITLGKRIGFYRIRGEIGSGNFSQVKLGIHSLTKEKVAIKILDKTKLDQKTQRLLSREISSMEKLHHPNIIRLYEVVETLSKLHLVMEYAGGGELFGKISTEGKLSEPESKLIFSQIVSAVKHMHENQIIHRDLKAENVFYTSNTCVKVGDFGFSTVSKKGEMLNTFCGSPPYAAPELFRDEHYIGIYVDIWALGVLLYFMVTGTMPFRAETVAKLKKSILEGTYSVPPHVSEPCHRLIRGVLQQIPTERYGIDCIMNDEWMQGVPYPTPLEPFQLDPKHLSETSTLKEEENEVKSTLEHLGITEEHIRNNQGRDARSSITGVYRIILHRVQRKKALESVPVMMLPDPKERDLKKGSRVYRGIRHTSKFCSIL

[7] = target: Mitogen-activated protein kinase kinase kinase 9 (Homo sapiens) (UniProt P80192); assay: Inhibition of human MLK1 assessed as enzyme activity at 1 uM using casein as substrate preincubated for 20 mins followed by [gamma-33P]-ATP addition and measured after 120 mins by radiometric Hot-SpotSM Kinase assay relative to control
Mitogen-activated protein kinase kinase kinase 9 (Homo sapiens), sequence (P80192 whole entry, looked up): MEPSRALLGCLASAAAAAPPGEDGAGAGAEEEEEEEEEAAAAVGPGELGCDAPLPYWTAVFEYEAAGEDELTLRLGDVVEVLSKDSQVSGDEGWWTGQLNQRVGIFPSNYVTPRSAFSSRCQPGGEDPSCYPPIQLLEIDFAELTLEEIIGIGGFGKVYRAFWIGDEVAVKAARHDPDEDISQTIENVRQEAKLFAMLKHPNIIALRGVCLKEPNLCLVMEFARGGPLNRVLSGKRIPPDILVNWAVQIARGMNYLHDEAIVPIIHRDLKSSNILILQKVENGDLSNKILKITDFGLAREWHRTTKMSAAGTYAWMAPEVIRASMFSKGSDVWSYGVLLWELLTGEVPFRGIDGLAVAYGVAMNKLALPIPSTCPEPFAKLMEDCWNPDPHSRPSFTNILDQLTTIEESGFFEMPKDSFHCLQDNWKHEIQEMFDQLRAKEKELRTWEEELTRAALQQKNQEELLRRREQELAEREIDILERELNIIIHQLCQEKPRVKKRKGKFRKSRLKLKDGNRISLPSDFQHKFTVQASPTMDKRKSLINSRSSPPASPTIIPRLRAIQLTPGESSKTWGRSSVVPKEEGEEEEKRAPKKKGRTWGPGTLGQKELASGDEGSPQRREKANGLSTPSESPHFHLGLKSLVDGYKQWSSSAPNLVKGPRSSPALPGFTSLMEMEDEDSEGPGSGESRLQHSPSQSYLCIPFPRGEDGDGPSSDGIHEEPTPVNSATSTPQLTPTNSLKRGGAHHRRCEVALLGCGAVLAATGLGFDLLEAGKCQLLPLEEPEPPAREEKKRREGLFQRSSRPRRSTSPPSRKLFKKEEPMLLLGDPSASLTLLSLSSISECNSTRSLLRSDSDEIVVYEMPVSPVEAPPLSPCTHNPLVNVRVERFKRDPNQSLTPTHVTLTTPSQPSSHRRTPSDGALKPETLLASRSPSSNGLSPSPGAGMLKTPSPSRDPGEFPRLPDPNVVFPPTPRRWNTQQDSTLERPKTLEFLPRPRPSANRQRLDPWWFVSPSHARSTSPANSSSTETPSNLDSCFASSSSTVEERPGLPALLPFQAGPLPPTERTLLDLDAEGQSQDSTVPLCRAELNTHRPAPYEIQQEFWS

[8] = target: Serine/threonine-protein kinase 38-like (Homo sapiens) (UniProt Q9Y2H1); assay: Inhibition of human STK38L assessed as enzyme activity at 1 uM using KKRNRRLSVA as substrate preincubated for 20 mins followed by [gamma-33P]-ATP addition and measured after 120 mins by radiometric Hot-SpotSM Kinase assay relative to control
Serine/threonine-protein kinase 38-like (Homo sapiens), sequence (Q9Y2H1 2-464 limits assumed): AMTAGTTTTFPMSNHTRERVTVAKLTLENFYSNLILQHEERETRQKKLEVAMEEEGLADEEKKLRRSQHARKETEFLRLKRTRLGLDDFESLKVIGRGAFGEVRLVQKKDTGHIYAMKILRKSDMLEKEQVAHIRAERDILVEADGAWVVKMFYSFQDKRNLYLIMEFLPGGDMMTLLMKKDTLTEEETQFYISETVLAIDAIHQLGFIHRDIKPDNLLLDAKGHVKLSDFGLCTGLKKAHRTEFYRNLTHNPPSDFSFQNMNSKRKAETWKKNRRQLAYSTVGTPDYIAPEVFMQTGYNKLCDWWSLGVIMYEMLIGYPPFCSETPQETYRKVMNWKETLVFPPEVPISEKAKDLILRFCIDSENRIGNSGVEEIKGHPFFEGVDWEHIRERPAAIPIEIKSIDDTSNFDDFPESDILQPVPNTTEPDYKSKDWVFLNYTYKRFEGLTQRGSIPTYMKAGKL

[9] = target: Leucine-rich repeat serine/threonine-protein kinase 2 (Homo sapiens) (UniProt Q5S007); assay: Inhibition of human LRRK2 assessed as enzyme activity at 1 uM using RLGRDKYKTLRQIRQ as substrate preincubated for 20 mins followed by [gamma-33P]-ATP addition and measured after 120 mins by radiometric Hot-SpotSM Kinase assay relative to control
Leucine-rich repeat serine/threonine-protein kinase 2 (Homo sapiens), sequence (Q5S007 whole entry): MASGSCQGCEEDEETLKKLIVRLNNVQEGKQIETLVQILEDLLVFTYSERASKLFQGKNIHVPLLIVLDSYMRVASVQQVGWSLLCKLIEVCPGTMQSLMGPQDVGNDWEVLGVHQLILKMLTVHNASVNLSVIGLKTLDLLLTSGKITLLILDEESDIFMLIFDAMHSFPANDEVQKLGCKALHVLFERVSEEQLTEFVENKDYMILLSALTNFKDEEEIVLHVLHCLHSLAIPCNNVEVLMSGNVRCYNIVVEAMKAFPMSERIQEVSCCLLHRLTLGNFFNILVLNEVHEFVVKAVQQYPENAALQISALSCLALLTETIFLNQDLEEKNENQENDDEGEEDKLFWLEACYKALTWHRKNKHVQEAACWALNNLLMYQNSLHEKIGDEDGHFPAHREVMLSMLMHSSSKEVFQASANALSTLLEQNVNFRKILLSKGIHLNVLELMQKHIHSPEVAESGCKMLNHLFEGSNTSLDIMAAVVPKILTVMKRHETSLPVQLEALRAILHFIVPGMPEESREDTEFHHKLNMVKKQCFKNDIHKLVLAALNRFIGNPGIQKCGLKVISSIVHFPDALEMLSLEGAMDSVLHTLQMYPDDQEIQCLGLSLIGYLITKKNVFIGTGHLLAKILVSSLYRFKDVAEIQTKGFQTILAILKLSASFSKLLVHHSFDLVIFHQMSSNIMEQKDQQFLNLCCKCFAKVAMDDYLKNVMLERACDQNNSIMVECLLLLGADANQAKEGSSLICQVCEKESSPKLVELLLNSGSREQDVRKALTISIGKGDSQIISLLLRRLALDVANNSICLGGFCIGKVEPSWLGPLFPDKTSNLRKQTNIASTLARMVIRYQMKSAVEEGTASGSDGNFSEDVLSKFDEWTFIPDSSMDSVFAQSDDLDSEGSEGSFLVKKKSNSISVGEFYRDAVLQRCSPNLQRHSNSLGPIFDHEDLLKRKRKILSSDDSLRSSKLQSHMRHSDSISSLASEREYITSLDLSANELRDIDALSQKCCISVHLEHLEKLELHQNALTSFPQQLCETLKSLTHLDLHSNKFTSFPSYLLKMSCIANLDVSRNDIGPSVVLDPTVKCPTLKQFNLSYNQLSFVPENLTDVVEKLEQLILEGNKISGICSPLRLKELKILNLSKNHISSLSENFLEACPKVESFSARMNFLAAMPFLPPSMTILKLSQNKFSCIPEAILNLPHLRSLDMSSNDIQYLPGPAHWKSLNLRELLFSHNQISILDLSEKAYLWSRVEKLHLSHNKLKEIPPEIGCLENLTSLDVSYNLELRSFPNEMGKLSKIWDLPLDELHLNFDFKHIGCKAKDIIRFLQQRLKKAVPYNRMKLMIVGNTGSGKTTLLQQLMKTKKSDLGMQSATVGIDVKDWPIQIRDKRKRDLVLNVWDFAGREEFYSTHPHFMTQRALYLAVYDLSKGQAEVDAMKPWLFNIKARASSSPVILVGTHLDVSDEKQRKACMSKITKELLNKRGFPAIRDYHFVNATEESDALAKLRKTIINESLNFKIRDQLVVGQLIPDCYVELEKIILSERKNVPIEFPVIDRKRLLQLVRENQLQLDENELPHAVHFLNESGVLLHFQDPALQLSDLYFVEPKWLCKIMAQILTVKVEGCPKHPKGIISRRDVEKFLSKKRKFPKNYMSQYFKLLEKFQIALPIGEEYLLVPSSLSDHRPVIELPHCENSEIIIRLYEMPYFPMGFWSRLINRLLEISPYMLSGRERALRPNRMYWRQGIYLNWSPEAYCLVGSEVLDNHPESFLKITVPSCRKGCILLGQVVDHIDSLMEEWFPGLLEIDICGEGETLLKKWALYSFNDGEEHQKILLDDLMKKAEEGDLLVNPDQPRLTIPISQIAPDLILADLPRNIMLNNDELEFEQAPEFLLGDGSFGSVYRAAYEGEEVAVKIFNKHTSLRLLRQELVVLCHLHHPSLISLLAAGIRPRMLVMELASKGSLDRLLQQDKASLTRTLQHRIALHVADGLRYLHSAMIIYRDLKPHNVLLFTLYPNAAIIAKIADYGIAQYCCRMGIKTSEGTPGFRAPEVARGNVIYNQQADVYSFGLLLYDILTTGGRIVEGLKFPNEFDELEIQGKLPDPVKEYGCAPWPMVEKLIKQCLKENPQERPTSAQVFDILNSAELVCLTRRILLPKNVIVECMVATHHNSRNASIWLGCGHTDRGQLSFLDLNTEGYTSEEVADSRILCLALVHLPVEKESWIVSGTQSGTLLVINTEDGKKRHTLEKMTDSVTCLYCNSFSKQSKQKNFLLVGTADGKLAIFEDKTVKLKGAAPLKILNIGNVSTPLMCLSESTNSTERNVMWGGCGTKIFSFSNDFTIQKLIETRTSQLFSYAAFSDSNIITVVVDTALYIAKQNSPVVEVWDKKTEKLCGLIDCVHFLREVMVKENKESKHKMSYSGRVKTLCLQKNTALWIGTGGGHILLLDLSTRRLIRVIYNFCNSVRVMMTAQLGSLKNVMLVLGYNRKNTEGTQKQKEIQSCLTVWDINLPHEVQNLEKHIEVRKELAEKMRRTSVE

[10] = target: T2, Mitogen-activated protein kinase kinase kinase 5 (Homo sapiens) (UniProt Q99683); assay: Inhibition of human ASK1 assessed as enzyme activity at 1 uM using myelin basic protein as substrate preincubated for 20 mins followed by [gamma-33P]-ATP addition and measured after 120 mins by radiometric Hot-SpotSM Kinase assay relative to control
T2 sequence (whole entry): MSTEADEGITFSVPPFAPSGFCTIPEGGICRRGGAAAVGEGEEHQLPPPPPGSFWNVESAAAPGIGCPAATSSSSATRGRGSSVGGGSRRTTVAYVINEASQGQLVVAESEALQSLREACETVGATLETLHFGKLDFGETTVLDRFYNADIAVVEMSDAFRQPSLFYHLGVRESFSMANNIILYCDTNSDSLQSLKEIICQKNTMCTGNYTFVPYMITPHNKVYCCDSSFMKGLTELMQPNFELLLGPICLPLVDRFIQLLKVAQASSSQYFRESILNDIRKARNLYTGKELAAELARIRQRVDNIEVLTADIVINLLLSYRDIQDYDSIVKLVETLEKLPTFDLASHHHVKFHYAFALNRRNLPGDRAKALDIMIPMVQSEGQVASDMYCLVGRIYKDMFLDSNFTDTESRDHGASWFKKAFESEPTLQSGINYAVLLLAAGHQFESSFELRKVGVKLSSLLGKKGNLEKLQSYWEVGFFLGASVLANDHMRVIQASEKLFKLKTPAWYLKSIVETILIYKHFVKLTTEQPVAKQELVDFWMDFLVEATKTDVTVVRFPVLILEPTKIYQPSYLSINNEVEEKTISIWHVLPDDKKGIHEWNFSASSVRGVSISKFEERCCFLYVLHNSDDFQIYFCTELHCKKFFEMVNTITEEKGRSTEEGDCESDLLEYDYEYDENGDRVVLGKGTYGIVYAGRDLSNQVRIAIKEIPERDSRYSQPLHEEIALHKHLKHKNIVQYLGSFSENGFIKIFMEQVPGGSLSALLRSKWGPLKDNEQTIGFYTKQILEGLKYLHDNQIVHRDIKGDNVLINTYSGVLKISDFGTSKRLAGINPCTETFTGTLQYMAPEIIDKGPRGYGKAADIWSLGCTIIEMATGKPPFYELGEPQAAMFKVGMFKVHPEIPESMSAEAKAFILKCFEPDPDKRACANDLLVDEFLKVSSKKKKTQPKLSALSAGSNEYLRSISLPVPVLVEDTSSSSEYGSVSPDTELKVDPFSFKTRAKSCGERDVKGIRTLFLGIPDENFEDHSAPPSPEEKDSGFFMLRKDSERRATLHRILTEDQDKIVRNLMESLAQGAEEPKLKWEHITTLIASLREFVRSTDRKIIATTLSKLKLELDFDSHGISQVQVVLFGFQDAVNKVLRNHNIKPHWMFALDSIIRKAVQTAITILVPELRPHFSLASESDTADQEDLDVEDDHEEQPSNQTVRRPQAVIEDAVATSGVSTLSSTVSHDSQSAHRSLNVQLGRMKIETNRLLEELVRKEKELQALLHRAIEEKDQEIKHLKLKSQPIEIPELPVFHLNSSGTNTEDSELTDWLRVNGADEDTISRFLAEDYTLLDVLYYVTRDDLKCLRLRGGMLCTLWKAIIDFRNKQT

C[C@H](Nc1ncnc2nc[nH]c12)c1cc2cccc(Cl)c2c(=O)n1-c1ccccc1
Activity [1]: 97.7%
Activity [2]: 100%
Activity [3]: 89%
Activity [4]: 99.6%
Activity [5]: 89.4%
Activity [6]: 94%
Activity [7]: 94%
Activity [8]: 92.7%
Activity [9]: 111%
Activity [10]: 97.7%

CC[C@H](Nc1ncnc2[nH]cnc12)c1nc2cccc(F)c2c(=O)n1-c1ccccc1
Activity [1]: 98.6%
Activity [2]: 102%
Activity [3]: 87.8%
Activity [4]: 99%
Activity [5]: 90.8%
Activity [6]: 93.6%
Activity [7]: 91.2%
Activity [8]: 95.1%
Activity [9]: 99.7%
Activity [10]: 102%

CC(C)Oc1ccc(-c2nn([C@@H](C)c3oc4ccc(F)cc4c(=O)c3-c3cccc(F)c3)c3ncnc(N)c23)cc1F [UMBRALISIB]
Activity [1]: 99.9%
Activity [2]: 105%
Activity [3]: 87%
Activity [4]: 93.3%
Activity [5]: 94.2%
Activity [6]: 93%
Activity [7]: 97.6%
Activity [8]: 100%
Activity [9]: 107%
Activity [10]: 98.4%
